# Literature values, collected in US7220859B2, “Bicyclic heterocycles as cannabinoid receptor modulators” (Bristol-Myers Squibb Company, priority 2005, dated 2007).
# Conditions: 16 week trial period
smiles,measurement,value
Cc1c(C(=O)NN2CCCCC2)nn(-c2ccc(Cl)cc2Cl)c1-c1ccc(Cl)cc1 [SR-141716],body weight in human subjects,dose-dependently reduced body weight
